Laboratory results: patent US12630544B2, “Compound, α-synuclein aggregate binder, and use thereof” (NATIONAL INSTITUTES FOR QUANTUM SCIENCE AND TECHNOLOGY, priority 2020, dated 2026)

Experiments:
[1] = target: T1, phosphorylated α-synuclein (Mus musculus, UniProt O55042); test: In vitro fluorescence microscope measurement, brain sections of α-synuclein fibril-inoculated mouse; conditions: 30 μM compound, 20% ethanol, 30 minutes; mouse brain section
T1 construct: from tissue; host or cells: brain of C57/BL/6 mouse inoculated in the striatum with recombinant (E. coli) mouse α-synuclein fibrils; sections or living animal
Experimental: First, mouse α-synuclein was expressed in and extracted from E. coli as a recombinant protein, and then incubated in vitro to form insoluble α-synuclein aggregates. The α-synuclein aggregates were then inoculated into the striatum of a mouse. […] Note that the inoculation of the α-synuclein aggregates into the striatum of the mouse was carried out in the following manner. First, hair on the head of a 9-week-old C57/BL/6 male mouse which had been anesthetized with 1.5% (v/v) isoflurane was removed, and the scalp was disinfected with isodine, followed by application of xylocaine and incision in the scalp to expose the skull. […]
The brain of this α-synuclein fibril-inoculated mouse was extracted, and then sections were prepared. The sections were analyzed by fluorescent staining. […] After the section was mounted in a mounting medium (VECTASHIELD H-1000), an image of an α-synuclein aggregate-enriched area on the section was obtained with use of a fluorescence microscope (DM4000 (excitation wavelength: 391 nm to 437 nm)). […] After the section was subjected to immunohistochemical staining with use of an anti-phosphorylated α-synuclein monoclonal antibody (pS129, abcam, ab59264) (1:1000) and then mounted in a mounting medium (VECTASHIELD H-1000), an image of the same area as above was obtained with use of a fluorescence microscope (DM4000 (excitation wavelength: 460 nm to 500 nm)). […]

[2] = target: α-synuclein aggregates (Homo sapiens, UniProt P37840); test: In vitro fluorescence microscope measurement, amygdala sections of DLB patient brain; set-up: α-synuclein aggregates formed in the brain of the DLB patient; from tissue; host or cells: post-mortem human brain: amygdala of DLB patient (sections or homogenate); cerebellum of MSA patient; conditions: 30 μM test compound
Text: Postmortem human brains were obtained in autopsies carried out with respect to a patient with dementia with Lewy bodies (DLB) and a patient with Alzheimer's disease (AD). In a cryostat (HM560, Carl Zeiss), frozen tissue from the DLB patient was sliced into sections each having a thickness of 20 μm. Brain tissue from the AD patient was fixed in 10% neutral buffered formalin, embedded in a paraffin block, and sliced into sections each having a thickness of 6 μm.
Postfixed fresh frozen sections of amygdala tissue obtained from the brain of the DLB patient and deparaffinized sections of formalin-fixed paraffin-embedded middle frontal gyrus tissue obtained from the brain of the AD patient were used. Each brain section and a 30 μM test compound were incubated in a 50% ethanol solution at room temperature for 30 minutes. Thereafter, the section was washed with a 50% ethanol solution for 5 minutes and with ultrapure water for 3 minutes. This washing was carried out twice. After the section was mounted in a mounting medium (VECTASHIELD H-1000, Vector Laboratories), an image of a lesion-enriched area on the section was obtained with use of a fluorescence microscope (DM4000, Leica, excitation wavelength: 391 nm to 437 nm). In FIG. 1, each arrowhead indicates fluorescence from the compound binding to α-synuclein aggregates in the brain of the DLB patient, each arrow indicates fluorescence from the compound binding to amyloid-β aggregates in the brain of the AD patient, and an asterisk indicates fluorescence from the compound binding to tau aggregates in the brain of the AD patient. The fluorescence intensities of lesion-enriched areas and lesion-free areas (background) were quantified with use of analysis software (Image J). Note that SPAL-T-05 and SPAL-T-06 were each used as the test compound. Note also that BF-227 (2-(2-[2-dimethylaminothiazol-5-yl]ethenyl)-6-(2-[fluoro]ethoxy)benzoxazole (catalog No.: NP039-0)) and PBB3 (2-((1E,3E)-4-(6-(methylamino)pyridin-3-yl)buta-1,3-dienyl)benzo[d]thiazol-6-ol) (catalog No.: NP039-0), each available from NARD INSTITUTE, LTD., were each used as a control compound.

With CNc1cnc(C#C/C=C/c2nc3ccc(OCC(O)CF)cc3s2)cn1 (stereo not drawn) [SPAL-T-06, (E)-1-fluoro-3-((2-(4-(5-(methylamino)pyrazin-2-yl)but-1-en-3-yn-1-yl)benzo[d]thiazol-6-yl)oxy)propan-2-ol] the “binding to lesion caused by phosphorylated α-synuclein (fluorescent staining, co-stained with pS129 antibody)” value [1] was “bound to a lesion caused by phosphorylated α-synuclein”, the “binding to α-synuclein aggregates formed in the brain of the DLB patient (fluorescence)” value ([2]; 50% ethanol, room temperature, 30 minutes, amygdala sections) was “reactivity greater than that of PBB3” and the “binding selectivity: α-synuclein aggregates (DLB brain) versus tau aggregates or amyloid-β aggregates (AD brain)” value ([2]; fluorescence of lesion-enriched vs lesion-free areas) was “greater than binding of each of SPAL-T-06 and SPAL-T-05 to tau aggregates or amyloid-β aggregates”.
